# Measurements as given in article PMC3349995 (Journal of Natural Products, 2012).
# How the values were obtained:
# [1] = system: methicillin-sensitive Staphylococcus aureus (MSSA, ATCC #29213); test: Antibacterial assay, MIC by dilution antimicrobial susceptibility test; assay type: cell-based; settings: ATCC29213|MSSA, 18 h, read-out: MIC against MSSA
# [2] = system: methicillin-resistant Staphylococcus aureus (MRSA, ATCC #33591); test: as above; assay type: cell-based; settings: ATCC33591|MRSA, 18 h, read-out: MIC against MRSA
# [3] = qualitative statement from the literature; cited from earlier work
Compound,MIC [1] [µg/mL],MIC [2] [µg/mL],antibacterial activity (reported) [3]
CN[C@H](CC(C)C)C(=O)N[C@H]1C(=O)N[C@@H](CC(N)=O)C(=O)N[C@H]2C(=O)N[C@H]3C(=O)N[C@H](C(=O)N[C@H](C(=O)O)c4cc(O)cc(O)c4-c4cc3ccc4O)[C@H](O)c3ccc(c(Cl)c3)Oc3cc2cc(c3O[C@@H]2O[C@H](CO)[C@@H](O)[C@H](O)[C@H]2O[C@H]2C[C@](C)(N)[C@H](O)[C@H](C)O2)Oc2ccc(cc2Cl)[C@H]1O [Vancomycin],1,1,–
peptidolipin NA,–,–,moderate antibacterial activity
